The values that follow come from ChEMBL document CHEMBL1151592, “Synthesis of new 3,4-disubstituted pyrrolidines as thromboxane A2/prostaglandin H2 (TP) receptor antagonists” (Bioorg Med Chem Lett, 1996).

As usually defined, the pIC50 is the negative decadic logarithm of the IC50, by convention in mol/L.

pIC50: −log10 of the molar value.

Assay [1] deals with Thromboxane A2 receptor (Cavia porcellus). As to the kind of experiment: Antagonistic activity against TP-receptor by inhibition of U 46619-induced contraction of isolated guinea pig trachea. The settings on record: read-out: pA2 (converted).
For the next assay, the system named is Cavia porcellus. The experiment in a line: Compound was evaluated in vivo for inhibition of U 46619 induced increase in tracheal pressure of guinea pig. The class given is functional. The settings on record: Trachea, read-out: ID50 (the source's name).
For the next assay, the species on record is Homo sapiens. As to the kind of experiment: Compound was evaluated for anti-platelet activity by measuring its inhibitory effect on human platelet rich plasma (PRP) aggregated with U-46,619. The format is functional.

On to `O=C(O)CC/C=C\C[C@@H]1CN(S(=O)(=O)c2ccc(Cl)cc2)C[C@H]1c1ccccc1O`, for which the Kb in assay [1] is 12.6 nM. Also, the ED50 with Cavia porcellus worked out at 0.12 mg/kg.

In the case of `O=C(O)CC/C=C\C[C@@H]1CN(S(=O)(=O)c2cccc3cnccc23)C[C@H]1c1ccccc1O`, the ED50 in the assay on Cavia porcellus was found to be 0.056 mg/kg.

For the molecule `O=C(O)CC/C=C\C[C@@H]1CN(S(=O)(=O)c2cccc3cccnc23)C[C@@H]1c1ccccc1O`, the pIC50 in the assay filed under Homo sapiens is 5.52. Besides, in the assay on Cavia porcellus, the ED50 was 0.025 mg/kg.

With `O=C(O)CC/C=C\C[C@@H]1CN(S(=O)(=O)c2ccc(Cl)cc2)C[C@@H]1c1ccccc1O`, the Kb in assay [1] was 1 nM. Besides, the pIC50 in the assay filed under Homo sapiens was 5.33. Moreover, the ED50 in the assay on Cavia porcellus came to 0.03 mg/kg.

Turning to `O=C(O)CC/C=C\C[C@@H]1CN(Cc2ccccc2)C[C@@H]1c1ccccc1O`, the Kb in assay [1] is 251 nM. The ED50 in the assay with Cavia porcellus was determined as 0.17 mg/kg.

In the case of `CC(C)C(=O)N1C[C@@H](C/C=C\CCC(=O)O)[C@@H](c2ccccc2O)C1`, the ED50 with Cavia porcellus worked out at 0.11 mg/kg.

On to `O=C(O)CC/C=C\C[C@@H]1CO[C@H](c2ccccc2Cl)O[C@@H]1c1ccccc1O`, for which the ED50 in the assay on Cavia porcellus turned out to be 0.0007 mg/kg.

With `CCCCCCC(=O)N1C[C@@H](C/C=C\CCC(=O)O)[C@@H](c2ccccc2O)C1`, the ED50 in the assay on Cavia porcellus was determined as 0.43 mg/kg.

Turning to `O=C(O)CC/C=C\C[C@@H]1CN(S(=O)(=O)c2cccc3ccccc23)C[C@@H]1c1ccccc1O`, the pIC50 in the assay filed under Homo sapiens is 6.22. In the assay with Cavia porcellus, the ED50 amounted to 0.0075 mg/kg.

For the molecule `O=C(O)CCC/C=C\C[C@@H]1CN(S(=O)(=O)c2cccc3ccccc23)C[C@@H]1c1ccccc1O`, in assay [1], the Kb was 6.31 nM. In addition, in the assay listed under Homo sapiens, the pIC50 was 5.44. Moreover, in the assay on Cavia porcellus, the ED50 was found to be 0.08 mg/kg.

Turning to `O=C(O)CC/C=C\C[C@@H]1CN(Cc2cccnc2)C[C@@H]1c1ccccc1O`, the ED50 in the assay with Cavia porcellus worked out at 1 mg/kg.

For `O=C(O)CC/C=C\C[C@@H]1CN(S(=O)(=O)c2cccc3cnccc23)C[C@@H]1c1ccccc1O`, the pIC50 in the assay filed under Homo sapiens is 5.89. Moreover, the ED50 in the assay with Cavia porcellus was determined as 0.011 mg/kg.
